Data on 27 compounds can be found in patent US20130072470A1 (ABBVIE INC., priority 2011, published 2013).

The target of the experiment is T1, Jak3 enzyme (aa 811-1103) (Homo sapiens, UniProt P52333).
T1 construct: Jak3 enzyme (aa 811-1103); expressed in SF9 cells as a GST fusion; GST; made in house; host or cells: SF9 insect cells
Description: In vitro Jak3 kinase activity measured by time-resolved fluorescence resonance energy transfer (trFRET). It counts as biochemical. To be noted: ATP 0.001 mM. As for the experimental part: In Vitro Jak3 Kinase Activity Measured by Time-Resolved Fluorescence Resonance Energy Transfer (trFRET)
Varying concentrations of inhibitor were added to an assay well containing: Jak3 enzyme (aa 811-1103; expressed in SF9 cells as a GST fusion and purified by glutathione affinity chromatography; 3 nM), peptide substrate (biotin-TYR2, Sequence: Biotin-(Ahx)-AEEEYFFLFA-amide; 2 μM), MOPSO pH 6.5 (50 mM), MgCl2 (10 mM), MnCl2 (2 mM), DTT (2.5 mM), BSA (0.01% w/v), Na3VO4 (0.1 mM) and ATP (0.001 mM). After about 60 min incubation at rt, the reaction was quenched by addition of EDTA (final concentration: 100 mM) and developed by addition of revelation reagents (final approximate concentrations: 30 mM HEPES pH 7.0, 0.06% BSA, 0.006% Tween-20, 0.24 M KF, 80 ng/mL PT66K (europium labeled anti-phosphotyrosine antibody cat #61T66KLB Cisbio, Bedford, Mass.) and 0.8 μg/mL SAXL (Phycolink streptavidin-allophycocyanin acceptor, cat #PJ52S, Prozyme, San Leandro, Calif.). The developed reaction was incubated in the dark either at about 4° C., for about 14 h or for about 60 min at rt, then read via a time-resolved fluorescence detector (Rubystar, BMG) using a 337 nm laser for excitation and emission wavelength of 665 nm. Within the linear range of the assay, the observed signal at 665 nm is directly related to phosphorylated product and used to calculate the IC50 values.

T1 sequence (P52333 811-1103): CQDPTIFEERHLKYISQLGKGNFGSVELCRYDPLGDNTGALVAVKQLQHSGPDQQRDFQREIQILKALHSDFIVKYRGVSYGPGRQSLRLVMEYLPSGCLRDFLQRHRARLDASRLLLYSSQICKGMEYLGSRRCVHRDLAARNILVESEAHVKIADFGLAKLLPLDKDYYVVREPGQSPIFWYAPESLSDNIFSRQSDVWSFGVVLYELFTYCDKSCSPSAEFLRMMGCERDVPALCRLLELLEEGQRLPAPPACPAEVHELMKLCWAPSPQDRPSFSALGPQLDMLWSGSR

Usually IC50 stands for the midpoint of a concentration-inhibition curve. The low end stands for greater potency, the high end for weaker potency. For the compound `C[C@@H]1C[C@@H](CCC#N)C[C@@H]1n1nnc2cnc3[nH]ccc3c21` [Example #11, 3-((1R,3R,4S)-3-methyl-4-(pyrrolo[2,3-b][1,2,3]triazolo[4,5-d]pyridin-1(6H)-yl)cyclopentyl)propanenitrile], the 50% inhibitory concentration (IC50) fell in the range of 1 to 10 µM.

Take `CC[C@@H]1C[C@H](NC(=O)/C=C/c2ccco2)C[C@@H]1c1nnc2cnc3[nH]ccc3n12` [compound 60, (E)-N-((1S,3R,4S)-3-ethyl-4-(6H-pyrrolo[2,3-e][1,2,4]triazolo[4,3-a]pyrazin-1-yl)cyclopentyl)-3-(furan-2-yl)acrylamide]: the IC50 (Table B) is 1 to 10 µM.

`CC[C@@H]1C[C@H](NC(=O)c2cc(C)no2)C[C@@H]1c1nnc2cnc3[nH]ccc3n12` [compound 62, N-((1S,3R,4S)-3-ethyl-4-(6H-pyrrolo[2,3-e][1,2,4]triazolo[4,3-a]pyrazin-1-yl)cyclopentyl)-3-methylisoxazole-5-carboxamide] returned an IC50 (Table B) of 1 to 10 µM.

Take `CC[C@@H]1CN(C(=O)NC2CCC2)C[C@@H]1c1cnc2cnc3[nH]ccc3n12` [Example #17, (3S,4R)—N-cyclobutyl-3-ethyl-4-(3H-imidazo[1,2-a]pyrrolo[2,3-e]pyrazin-8-yl)pyrrolidine-1-carboxamide]: the IC50 is > 10 µM.

`CC[C@@H]1C[C@H](NC(=O)CCC2CCC(=O)N2)C[C@@H]1c1nnc2cnc3[nH]ccc3n12` (stereo partly drawn) [compound 80, N-((1S,3R,4S)-3-ethyl-4-(6H-pyrrolo[2,3-e][1,2,4]triazolo[4,3-a]pyrazin-1-yl)cyclopentyl)-3-(5-oxopyrrolidin-2-yl)propanamide] showed an IC50 (Table B) of 1 to 10 µM.

For the compound `CC[C@@H]1C[C@H](NC(=O)CCc2ccco2)C[C@@H]1c1nnc2cnc3[nH]ccc3n12` [compound 53, N-((1S,3R,4S)-3-ethyl-4-(6H-pyrrolo[2,3-e][1,2,4]triazolo[4,3-a]pyrazin-1-yl)cyclopentyl)-3-(furan-2-yl)propanamide], under “Table B”, the IC50 was < 1 µM.

Turning to `CC[C@@H]1C[C@H](NC(=O)c2cc3ccc(C)cc3o2)C[C@@H]1c1nnc2cnc3[nH]ccc3n12` [compound 33, N-((1S,3R,4S)-3-ethyl-4-(6H-pyrrolo[2,3-e][1,2,4]triazolo[4,3-a]pyrazin-1-yl)cyclopentyl)-6-methylbenzofuran-2-carboxamide], the IC50 (Table B) lay within 1 to 10 µM.

Consider `CC[C@@H]1C[C@H](NC(=O)CCc2nc(C)no2)C[C@@H]1c1nnc2cnc3[nH]ccc3n12` [compound 37, N-((1S,3R,4S)-3-ethyl-4-(6H-pyrrolo[2,3-e][1,2,4]triazolo[4,3-a]pyrazin-1-yl)cyclopentyl)-3-(3-methyl-1,2,4-oxadiazol-5-yl)propanamide], for which the IC50 (Table B) lay in the range of 1 to 10 µM.

Compound `CC[C@@H]1C[C@H](NC(=O)c2cc3ccccc3o2)C[C@@H]1c1nnc2cnc3[nH]ccc3n12` [compound 57, N-((1S,3R,4S)-3-ethyl-4-(6H-pyrrolo[2,3-e][1,2,4]triazolo[4,3-a]pyrazin-1-yl)cyclopentyl)benzofuran-2-carboxamide] registered an IC50 (Table B) of 1 to 10 µM.

`CC[C@@H]1C[C@H](NC(=O)c2ccoc2)C[C@@H]1c1nnc2cnc3[nH]ccc3n12` [compound 56, N-((1S,3R,4S)-3-ethyl-4-(6H-pyrrolo[2,3-e][1,2,4]triazolo[4,3-a]pyrazin-1-yl)cyclopentyl)furan-3-carboxamide]: the IC50 (Table B) was 1 to 10 µM.

For `CC[C@@H]1CN(C(=O)NCC(C)(F)F)C[C@@H]1c1cnc2cnc3[nH]ccc3n12` [Example #16, (3S,4R)—N-(2,2-difluoropropyl)-3-ethyl-4-(3H-imidazo[1,2-a]pyrrolo[2,3-e]pyrazin-8-yl)pyrrolidine-1-carboxamide], the IC50 is > 10 µM.

`Cc1cnc(C(=O)N[C@H]2C[C@@H](C)[C@@H](c3cnc4cnc5[nH]ccc5n34)C2)cn1` [Example #1, N-((1S,3S,4R)-3-(3H-imidazo[1,2-a]pyrrolo[2,3-e]pyrazin-8-yl)-4-methylcyclopentyl)-5-methylpyrazine-2-carboxamide]: the IC50 was > 10 µM.

As for `CC[C@@H]1C[C@H](NC(=O)c2ncoc2C2CC2)C[C@@H]1c1nnc2cnc3[nH]ccc3n12` [compound 47, 5-cyclopropyl-N-((1S,3R,4S)-3-ethyl-4-(6H-pyrrolo[2,3-e][1,2,4]triazolo[4,3-a]pyrazin-1-yl)cyclopentyl)oxazole-4-carboxamide], the IC50 (Table B) is > 10 µM.

For `CC[C@@H]1C[C@H](NC(=O)c2cocn2)C[C@@H]1c1nnc2cnc3[nH]ccc3n12` [compound 63, N-((1S,3R,4S)-3-ethyl-4-(6H-pyrrolo[2,3-e][1,2,4]triazolo[4,3-a]pyrazin-1-yl)cyclopentyl)oxazole-4-carboxamide], the IC50 (Table B) was in the range of 1 to 10 µM.

Take `CC[C@@H]1C[C@H](NC(=O)CCC2CCCCC2=O)C[C@@H]1c1nnc2cnc3[nH]ccc3n12` (stereo partly drawn) [compound 70, N-((1S,3R,4S)-3-ethyl-4-(6H-pyrrolo[2,3-e][1,2,4]triazolo[4,3-a]pyrazin-1-yl)cyclopentyl)-3-(2-oxocyclohexyl)propanamide]: the IC50 (Table B) was > 10 µM.

In turn, `CC[C@@H]1C[C@H](NC(=O)CNC(=O)c2ccc(C)o2)C[C@@H]1c1nnc2cnc3[nH]ccc3n12` [compound 30, N-(2-((1S,3R,4S)-3-ethyl-4-(6H-pyrrolo[2,3-e][1,2,4]triazolo[4,3-a]pyrazin-1-yl)cyclopentylamino)-2-oxoethyl)-5-methylfuran-2-carboxamide] gave an IC50 (Table B) of 1 to 10 µM.

Compound `C[C@@H]1CN(C(=O)CC2CC2)C[C@@H]1c1cnc2cnc3[nH]ccc3n12` [Example #21, 1-((3R,4S)-3-(3H-imidazo[1,2-a]pyrrolo[2,3-e]pyrazin-8-yl)-4-methylpyrrolidin-1-yl)-2-cyclopropylethanone] displayed an IC50 of 1 to 10 µM.

With `CC[C@@H]1C[C@H](NC(=O)c2coc3ccccc23)C[C@@H]1c1nnc2cnc3[nH]ccc3n12` [compound 32, N-((1S,3R,4S)-3-ethyl-4-(6H-pyrrolo[2,3-e][1,2,4]triazolo[4,3-a]pyrazin-1-yl)cyclopentyl)benzofuran-3-carboxamide], the IC50 (Table B) lay in the range of 1 to 10 µM.

Compound `CC[C@@H]1C[C@H](NC(=O)c2coc(C)n2)C[C@@H]1c1nnc2cnc3[nH]ccc3n12` [Example #24, N-((1S,3R,4S)-3-ethyl-4-(6H-pyrrolo[2,3-e][1,2,4]triazolo[4,3-a]pyrazin-1-yl)cyclopentyl)-2-methyloxazole-4-carboxamide] gave an IC50 of 1 to 10 µM.

Consider `CC[C@@H]1C[C@H](NC(=O)c2coc3c2C(=O)CCC3)C[C@@H]1c1nnc2cnc3[nH]ccc3n12` [compound 58, N-((1S,3R,4S)-3-ethyl-4-(6H-pyrrolo[2,3-e][1,2,4]triazolo[4,3-a]pyrazin-1-yl)cyclopentyl)-4-oxo-4,5,6,7-tetrahydrobenzofuran-3-carboxamide], for which the IC50 (Table B) was 1 to 10 µM.

In the case of `CC[C@@H]1C[C@H](NC(=O)CCC2CCCCC2)C[C@@H]1c1nnc2cnc3[nH]ccc3n12` [compound 77, 3-cyclohexyl-N-((1S,3R,4S)-3-ethyl-4-(6H-pyrrolo[2,3-e][1,2,4]triazolo[4,3-a]pyrazin-1-yl)cyclopentyl)propanamide], the IC50 (Table B) lay within 1 to 10 µM.

With `C[C@@H]1C[C@H](N(C)C(=O)c2cocn2)C[C@@H]1c1cnc2cnc3[nH]ccc3n12` [Example #3, N-((1S,3S,4R)-3-(3H-imidazo[1,2-a]pyrrolo[2,3-e]pyrazin-8-yl)-4-methylcyclopentyl)-N-methyloxazole-4-carboxamide], the IC50 is 1 to 10 µM.

Compound `CC[C@@H]1C[C@H](NC(=O)c2ccco2)C[C@@H]1c1nnc2cnc3[nH]ccc3n12` [compound 78, N-((1S,3R,4S)-3-ethyl-4-(6H-pyrrolo[2,3-e][1,2,4]triazolo[4,3-a]pyrazin-1-yl)cyclopentyl)furan-2-carboxamide] showed an IC50 (Table B) of 1 to 10 µM.

The compound `CCc1cc(C(=O)N[C@H]2C[C@@H](CC)[C@@H](c3nnc4cnc5[nH]ccc5n34)C2)no1` [compound 76, 5-ethyl-N-((1S,3R,4S)-3-ethyl-4-(6H-pyrrolo[2,3-e][1,2,4]triazolo[4,3-a]pyrazin-1-yl)cyclopentyl)isoxazole-3-carboxamide] yielded an IC50 (Table B) of 1 to 10 µM.

Take `CC[C@@H]1C[C@H](NC(=O)C2=NN=C(c3ccco3)C2)C[C@@H]1c1nnc2cnc3[nH]ccc3n12` [compound 39, N-((1S,3R,4S)-3-ethyl-4-(6H-pyrrolo[2,3-e][1,2,4]triazolo[4,3-a]pyrazin-1-yl)cyclopentyl)-5-(furan-2-yl)-4H-pyrazole-3-carboxamide]: the IC50 (Table B) is < 1 µM.

Consider `CC[C@@H]1C[C@H](NC(=O)c2cc(C)on2)C[C@@H]1c1nnc2cnc3[nH]ccc3n12` [compound 49, N-((1S,3R,4S)-3-ethyl-4-(6H-pyrrolo[2,3-e][1,2,4]triazolo[4,3-a]pyrazin-1-yl)cyclopentyl)-5-methylisoxazole-3-carboxamide], for which the IC50 (Table B) was in the range of 1 to 10 µM.

Take `CC[C@@H]1C[C@H](NC(=O)c2noc3c2CC(C)CC3)C[C@@H]1c1nnc2cnc3[nH]ccc3n12` (stereo partly drawn) [compound 29, N-((1S,3R,4S)-3-ethyl-4-(6H-pyrrolo[2,3-e][1,2,4]triazolo[4,3-a]pyrazin-1-yl)cyclopentyl)-5-methyl-4,5,6,7-tetrahydrobenzo[d]isoxazole-3-carboxamide]: the IC50 (Table B) lay in the range of 1 to 10 µM.
